Measurements reported in paper PMC4398456, “Evidence for a Novel Mechanism of Antimicrobial Action of a Cyclic R-,W-Rich Hexapeptide” (PLoS ONE, 2015).
Converted amounts (≈) assume the structure as drawn. Residues, ends and D or L forms follow the SMILES beside them.

Legend:
B. subtilis DSM 347 = conditions: microdilution; reported before; cited from earlier work
[1] = test system: E. coli L-WF+ (cell wall-deficient L-form, W1655 F+); assay type: cell-based; conditions: microdilution, 96-well, 0.05 to 100 μM peptide, BHI with supplements, OD550 0.4, 18 hours, 37°C; triplicates, at least three independent experiments
Protocol: (§1) For L-form bacteria BHI medium was supplemented with […] penicillin and additional 50 mg/ml sucrose and 30 mg/ml yeast extract in the case of B. subtilis L-170. L-form cells were cultivated as described above using flat bottom glass flasks and OD was measured at 550 nm (OD550 = 1 corresponds to 3.92 × 10^8 CFU/ml L-170 and 9.75 × 10^8 CFU/ml L-WF+).
(§2) To determine the minimal inhibitory peptide concentration (MIC) of bacterial growth we applied a microdilution technique as described previously. Briefly, the antimicrobial activity was tested against L-form bacteria in 96-well plates with final peptide concentrations ranging from 0.05 to 100 μM. Cultures were diluted to OD550 0.4 in BHI containing strain-specific supplements. Cells were grown for 18 hours at 37°C and 180 rpm. Peptide activity was tested in triplicates in at least three independent experiments.

[2] = test system: B. subtilis L-170 (cell wall-deficient L-form); assay type: cell-based; conditions: microdilution, 96-well, 0.05 to 100 μM peptide, BHI with supplements, OD550 0.4, 18 hours, 37°C; triplicates, at least three independent experiments
Protocol: as §1, §2

ITC binding to LUVs [3] = experiment: ITC binding to LUVs; parameters: species or system E. coli; conditions: 25°C
Protocol: The lipid concentration of E. coli extract preparations was determined from dried lipid films by gravimetric analysis. Liposomes were prepared after resuspension in phosphate buffer and sonication on ice for 25 min under nitrogen stream using a Labsonic L ultrasonicator (B. Braun Biotech, Germany) followed by centrifugation for 5 min at 11000 × g (Eppendorf MiniSpin, Germany) to remove potential titanium debris. The diameter of LUVs from E. coli extract was 90 nm. According to manufacturer's data, E. coli polar lipid extract is a three component mixture containing 71.4% PE-, 23.4% PG-lipids and 5.2% CL (mol%).
(§3) High-sensitivity isothermal titration calorimetry (ITC) experiments to characterise peptide interaction with model membranes were performed at 25°C on a VP-ITC instrument (MicroCall, Malvern Instruments, UK). Binding data were generated as described before. Prior to use, solutions were gently degassed under vacuum. 10 μl aliquots of 5 to 10 mM lipid vesicles were titrated into a 40 μM peptide solution inside the calorimeter cell (1.4 ml) while the reaction mixture was continuously stirred at 307 rpm. Time intervals between injections were adjusted to 10 min which was sufficient for the heat signal to return to baseline level. Automated baseline adjustment and peak integration were accomplished with the public-domain software NITPIC [32].
(§4) Binding parameters, such as hydrophobic partition coefficient (K 0) and enthalpy of binding (ΔH°), were derived by applying a surface partition equilibrium under the specific condition that peptide adsorption is linearly related to the peptide concentration immediately above the membrane surface. This concentration in close proximity to the membrane is determined by electrostatic interactions and depends on the bulk concentration of peptide, peptide charge and membrane surface potential. Negatively charged lipid layers attract cationic peptides. Consequently, the membrane surface concentration is enhanced compared to that in the bulk solution. After binding of cationic peptides to an electrically neutral membrane it becomes positively charged which results in a repulsion of further peptides from the membrane surface. Using the Gouy—Chapman theory which accounts for electrostatic effects, it is possible to calculate the peptide surface concentration and to determine the partition coefficient K 0 [33]. Nonlinear least-squares data fitting was performed with Excel 2010 (Microsoft) using the Solver add-in (Frontline Systems). The Gibbs free energy was calculated according to ΔG° = -RT ln(55.5 M × K 0), where 55.5 M is the molar concentration of water in the aqueous phase. Finally, the entropic contribution to membrane partitioning,-TΔS°, was derived from the Gibbs-Helmholtz equation, ΔG° = ΔH°-TΔS°.

mammalian cells = conditions: cited from earlier work
From the text: The structure-activity-relationship of small cyclic R-,W-rich peptides is well characterised. […] With cationic charge and high amphipathicity the cyclic peptide features the structural determinants for membrane activity.

E. coli DH5α = conditions: microdilution; reported before; cited from earlier work
[4] = Calcein dye release from liposomes; assay type: biochemical; conditions: 10 μM peptide, 1 min, Tris buffer pH 7.4, room temperature; for permeabilisation (calcein dye release): fluorescence; for dye release: cardiolipin 40 mol%
From the text: (§5) Large unilamellar vesicles (LUVs) were used for isothermal titration calorimetry studies and prepared as described before. […] As CL potentially carries two negative charges it was applied at half POPG concentrations to give liposomes with identical surface charge. Subsequently, chloroform was evaporated under nitrogen stream and obtained lipid films were dried under high vacuum for several hours and rehydrated in phosphate buffer by thorough vortexing. The solution was heated 2–3 times in a water bath to 40°C to facilitate resuspension. POPE-LUVs were obtained after 35-fold extrusion through two stacked polycarbonate membranes (100 nm pore size) using a mini extruder (Avestin, Switzerland). The procedure gives vesicles with a diameter of 90–120 nm as determined with dynamic light scattering (DLS) performed on a Zetasizer Nano ZS ZEN 3600 (Malvern Instruments, UK). Large liposomes for dye release experiments were prepared with a solution of 80 mM calcein in 10 mM Tris buffer, 0.1 mM EDTA, pH 7.4 and treated to remove non-incorporated dye as described before.
Peptide-induced calcein release was monitored fluorimetrically by measuring the time-dependent decrease in self-quenching (ex 490 nm, em 514 nm) at room temperature on a LS 50B spectrofluorimeter (Perkin Elmer, Germany) as described before. Lipid concentration was 25 μM in Tris buffer (10 mM Tris, 154 mM NaCl, pH 7.4) and peptide concentrations ranged from 1 to 200 μM. The fluorescence intensity corresponding to 100% release was determined by addition of a 10% Triton X-100 solution. In this study, calcein release was analysed after 1 min of incubation with 10 μM peptide and 25 μM liposomal suspensions.

ITC binding to LUVs [5] = conditions: 25°C; for K 0 (hydrophobic partition coefficient): phosphate buffer pH 7.4, surface partition model; for ΔG°: calculated as -RT ln(55.5 M × K 0); for -TΔS°: from Gibbs-Helmholtz equation
From the text: as §5, §3, §4

[6] = LUVs of POPC/CL (87.5/12.5 mol%)
[7] = LUVs of POPE/CL (87.5/12.5 mol%)

## N=C(N)NCCC[C@@H]1NC(=O)[C@H](CCCNC(=N)N)NC(=O)[C@H](Cc2c[nH]c3ccccc23)NC(=O)[C@H](Cc2ccccc2)NC(=O)[C@H](Cc2c[nH]c3ccccc23)NC(=O)[C@H](CCCNC(=N)N)NC1=O [cWFW] (cyclo(FWRRRW))
B. subtilis DSM 347
  MIC B. subtilis DSM 347: 3 µM (≈ 2.96 µg/mL)
[1]
  MIC E. coli L-WF+: 12 µM (≈ 11.9 µg/mL)
[2]
  MIC B. subtilis L-170: 6 µM (≈ 5.93 µg/mL)
ITC binding to LUVs [3]; 10 mM LUVs into 40 μM peptide, γ = 0.6
  ΔH°: -3.99 kcal/mol
ITC binding to LUVs [3]; 10 mM LUVs titrated into 40 μM peptide, phosphate buffer pH 7.4, surface partition model, γ = 0.6
  K 0 (hydrophobic partition coefficient): 8.8e+06 M⁻¹
ITC binding to LUVs [3]; calculated as -RT ln(55.5 M × K 0), LUVs of E. coli extract
  ΔG°: -11.9 kcal/mol
ITC binding to LUVs [3]; from Gibbs-Helmholtz equation, LUVs of E. coli extract
  -TΔS°: -7.86 kcal/mol
Mammalian cells
  toxicity towards mammalian cells: no toxicity
E. coli DH5α
  MIC E. coli DH5α: 3 µM (≈ 2.96 µg/mL)
[4]; CL content of 12.5% (matrix lipid not restated, follows sentence on POPE systems), 25 μM lipid
  peptide-induced dye release: 18%
[4]; PC/7.5% CL, 25 μM lipid
  permeabilisation (calcein dye release): 15%
[4]; PC/25% PG, 25 μM lipid
  permeabilisation (calcein dye release): 8%
[4]; PE/7.5% CL, 25 μM lipid
  permeabilisation (calcein dye release): 8%
[4]; PE/25%PG, 25 μM lipid (peptide/lipid 1/2.5)
  permeabilisation (calcein dye release): 2%
[4]; POPC-based LUVs, 25 μM lipid
  dye release: more than 70%
[4]; POPE-based LUVs, 25 μM lipid
  dye release: more than 70%
ITC binding to LUVs [5]; 5 mM LUVs into 40 μM peptide, γ = 1
  ΔH°: -2.87 kcal/mol
ITC binding to LUVs [5]; 5 mM LUVs titrated into 40 μM peptide, γ = 1
  K 0 (hydrophobic partition coefficient): 5.5e+07 M⁻¹
ITC binding to LUVs [5]; 10 mM LUVs into 40 μM peptide, γ = 0.5
  ΔH°: -1.22 kcal/mol
ITC binding to LUVs [5]; 10 mM LUVs titrated into 40 μM peptide, γ = 0.5
  K 0 (hydrophobic partition coefficient): 3.7e+06 M⁻¹
ITC binding to LUVs [5]; 5 to 10 mM LUVs titrated into 40 μM peptide, γ = 0.5
  K 0 (hydrophobic partition coefficient): 1.4e+06 M⁻¹
ITC binding to LUVs [5]; LUVs into 40 μM peptide, γ = 0.5
  ΔH°: -5.81 kcal/mol
ITC binding to LUVs [5]; [6]
  ΔG°: -10.8 kcal/mol
  -TΔS°: -4.95 kcal/mol
ITC binding to LUVs [5]; [7]
  ΔG°: -12.9 kcal/mol
  -TΔS°: -10.1 kcal/mol
ITC binding to LUVs [5]; LUVs of POPE/POPG (75/25 mol%)
  ΔG°: -11.3 kcal/mol
  -TΔS°: -10.1 kcal/mol
